Data set [1] deals with severe acute respiratory syndrome (SARS) coronavirus (strain Urbani). The data set is described as follows: microbe, parasite or virus in culture. Type of data set: cell-based.
A short description of data set [2]: in vitro. The note with it: African green monkey.
Data set [3] can be described thus: in vitro. Conditions: human.
The subject of a further data set is HIV-1LAI. The data set is described as follows: HIV-1 replication reverse transcriptase assay in PBMC. The note with it: for anti-HIV-1 activity (in words): HIV-1LAI in human PBMC. Type of data set: cell-based, HIV type-1.
Data set [4] has as its system primary human peripheral blood mononuclear cells.
Data set [5] has the same test system. Briefly: Cytotoxicity on PBMCs. Conditions: for CC50: experiment 1, PBMC.
A further data set relates to B/Florida/4/2006. Briefly: microbe, parasite or virus in culture. In kind it is cell-based, Influenza B virus.
Data set [6] has as its system A/Perth/16/2009 (seasonal H3N2). Briefly: microbe, parasite or virus in culture. Type of data set: cell-based, Influenza A virus (H3N2).
Data set [7] can be described thus: Hydrolytic stability of DMSO stock solution under freezing–. The note with it: multiple freezing–(re-thawing) cycles.
For data set [8], the system named is A/Vietnam/1203/2004 (highly pathogenic avian influenza H5N1). The data set is described as follows: microbe, parasite or virus in culture. In kind it is cell-based, Influenza A virus (H5N1 highly pathogenic).
Data set [9] deals with Vero 76 African green monkey kidney epithelial cells.
Data set [10] deals with MA-104 embryonic African green monkey kidney epithelial cells.
For data set [11], the system named is human parainfluenza virus type 3 (isolate 14702). Briefly: microbe, parasite or virus in culture. Type of data set: cell-based.
The test system of data set [12] is Madin–Darby canine kidney (MDCK) cells. Conditions: A/duck/Minnesota/1525/81 test.
For data set [13], the system named is A/California/07/2009 (pandemic swine-origin H1N1). Briefly: microbe, parasite or virus in culture. Type of data set: cell-based, Influenza A virus (H1N1).
For data set [14], the system named is A/duck/Minnesota/1525/81 (low pathogenic avian influenza H5N1). Briefly: microbe, parasite or virus in culture. Type of data set: cell-based, Influenza A virus (H5N1 low pathogenic).
Data set [15] is described as follows: in vitro. The note with it: dog.
Data set [16] in a line: in vitro. The note with it: African green monkey. The source holds these as a separate data set.
Setting [17] is: Human immunodeficiency virus 1, PBMC, experiment 1, PBMC, 9: fresh DMSO stock.
Setting [18] is: Human immunodeficiency virus 1, PBMC, experiment 2, PBMC, 9: fresh DMSO stock.
The mark [19] stands for this setting: experiment 1, PBMC, 9: fresh DMSO stock.
Where [20] appears, read: experiment 1, PBMC, RT activity in supernatant, 9: fresh DMSO stock.
Setting [21] is: experiment 2, PBMC, 9: fresh DMSO stock.
Setting [22] is: experiment 1, DMSO stock after second FRC.

In brackets after ≈: the same amount, converted by molar mass. Structures can show the parent of a compound that is named as a salt. Where two headings read alike, the source gives them in different places.

The term EC50 denotes the concentration needed to bring the measured effect to its halfway point. Broadly, the EC90 is the concentration at which the effect reaches the 90% level.

The molecule `CC(C)C[C@H](NC(=O)OCc1ccccc1)C(=O)NC(CCC(=O)N(C)C)C(=O)CF` (mixture of isomers) [EP128533, (4RS)-4-[N-(benzyloxycarbonyl)-L-leucylamino]-6-fluoro-5-oxohexanoic acid N,N-dimethylamide, reference compound] had an EC50 in [1] (Severe acute respiratory syndrome-related coronavirus, Vero 76) of 1.3 µg/mL. For the same molecule, the CC50 in the data set “in vitro [2]” was > 100 µg/mL.

For the molecule `NC12CC3CC(CC(C3)C1)C2` [1 ×HCl, 1-Adamantanammonium chloride, reference compound], the CC50 in the data set “in vitro [3]” is > 100 µM. The “anti-HIV-1 activity (in words)” value in the data set on HIV-1LAI was “did not show any anti-HIV-1 activity”. The concentration for an effect of 90% (EC90) in the data set with HIV-1LAI (setting [17]) was > 100 µM. Further, the “SI50 (selectivity index CC50/EC50)” value in the data set with HIV-1LAI (experiment 1) is listed as >1.1.

`Cc1cn([C@H]2C[C@H](N=[N+]=[N-])[C@@H](CO)O2)c(=O)[nH]c1=O` [AZT, 3′-azido-3′-deoxythymidine, reference compound]: the CC50 (in the data set “in vitro [3]”; in data set [4] (human)) was > 100 µM in each case. Moreover, the 90% effect concentration (EC90) is 0.031 µM with HIV-1LAI (setting [17]) and 0.047 µM in the data set on HIV-1LAI (setting [18]). Besides, the EC50 in the data set on HIV-1LAI (setting [18]) was found to be 0.0091 µM. Also, the “SI50 (selectivity index CC50/EC50)” value with HIV-1LAI (experiment 1) is on record as >22,727; in the data set on HIV-1LAI (experiment 2), >10,989.

For the molecule `CC(=NC12CC3CC(CC(C3)C1)C2)c1ccc(F)cc1` [Compound 4, 1-(4-Fluorophenyl)ethanone – tricyclo[3.3.1.1^3,7]dec-1-ylazanylidene (1:1)], the CC50 in data set [4] was > 100 µM. Besides, in the data set on HIV-1LAI, the “anti-HIV-1 activity (in words)” value is “did not show any anti-HIV-1 activity”. In addition, in the data set with HIV-1LAI (setting [19]), the concentration for an effect of 90% (EC90) is > 100 µM. Also, in the data set on HIV-1LAI (setting [20]), the EC50 was > 100 µM.

With `Nc1nc2ncc(CNc3ccc(C(=O)N[C@@H](CCC(=O)O)C(=O)O)cc3)nc2c(=O)[nH]1.O.O` [Compound 8, L-folic acid dihydrate, reference compound], in data set [5], the “toxicity in PBMC (in words)” value was “exhibited toxicity” and the CC50 is 25.7 µM. Moreover, the “anti-HIV-1 activity (in words)” value with HIV-1LAI is “did not show any anti-HIV-1 activity”. In the data set with HIV-1LAI (setting [21]), the EC50 is > 100 µM and the concentration for an effect of 90% (EC90) is > 100 µM.

For the molecule `O=C([O-])CC[C@H](NC(=O)c1ccc(NCc2cnc3nc([N-]c4nc5ncc(CNc6ccc(C(=O)N[C@@H](CCC(=O)[O-])C(=O)[O-])cc6)nc5c(=O)[nH]4)[nH]c(=O)c3n2)cc1)C(=O)[O-].[Na+].[Na+].[Na+].[Na+].[Na+]` [Compound 10, Pentasodium (2S,2′S)-2,2′-{azanidediylbis[(4-{[(4-oxo-3,4-dihydropteridine-2,6-diyl)methyl]amino}benzoyl)amino]}dipentanedioate×3 H2O×2.5 acetone], the CC50 in data set [5] is > 100 µM. The “anti-HIV-1 activity (in words)” value in the data set with HIV-1LAI is reported as “did not show any anti-HIV-1 activity”. For the same molecule, the EC90 in the data set with HIV-1LAI (setting [19]) is > 100 µM. Further, in the data set with HIV-1LAI (setting [20]), the EC50 was > 100 µM.

As to `Nc1nc2ncc(CNc3ccc(C(=O)N[C@@H](CCC(=O)[O-])C(=O)[O-])cc3)nc2c(=O)[nH]1.O.O.O.O.[Na+].[Na+]` [Compound 11, Disodium (2S)-2-(pteroylamino)pentanedioate×4 H2O], the CC50 in data set [4] is > 100 µM. Further, the “anti-HIV-1 activity (in words)” value in the data set with HIV-1LAI is “did not show any anti-HIV-1 activity”. In addition, the 90% effect concentration (EC90) in the data set on HIV-1LAI (setting [19]) is > 100 µM. The concentration for a half-maximal effect (EC50) in the data set on HIV-1LAI (setting [20]) was > 100 µM.

For `Cl.O=C(CNC12CC3CC(CC(C3)C1)C2)c1ccc(F)cc1` [Compound 12, 1-(4-Fluorophenyl)-2-(tricyclo[3.3.1.1^3,7]dec-1-ylamino) ethanone hydrochloride×0.11 H2O], the EC50 is >50 µg/mL with B/Florida/4/2006; >37 µg/mL in data set [6]; 50 µg/mL in data set [8] (A/Vietnam/1203/2004, MDCK (≤42 CCID50), neutral red); 92 µg/mL in data set [1] (Urbani, Vero 76 (130 CCID50), neutral red); >49 µg/mL in data set [11]; >36 µg/mL in [13]. Moreover, the EC50 in the data set with HIV-1LAI (setting [20]) is > 100 µM; in data set [14] (A/duck/Minnesota/1525/81, MDCK (25 CCID50), neutral red) it was 0.95 µg/mL; in data set [14] (low pathogenic H5N1 A/duck/Minnesota/1525/81) it was 2.92 µM. For the same molecule, the “inhibition of virus replication (in words)” value is “inactive” in the data set with B/Florida/4/2006; “inactive” in data set [6]; “inactive” in data set [8] (A/Vietnam/1203/2004); “did not inhibit” in data set [1] (SARS coronavirus); “did not inhibit” in data set [11]; “inactive” in [13]. In addition, the “inhibition of virus replication (in words)” value in [14] (A/duck/Minnesota/1525/81 (H5N1), amantadine-susceptible) is on record as “did inhibit”. In addition, in [7], the “activity of DMSO stock solution during multiple FRCs (in words)” value is “did not lose activity”. For the same molecule, the CC50 was >100 µg/mL in data set [9], 49 µg/mL in data set [10], 35 µg/mL in [12] and > 100 µM in data set [4]. In addition, the “anti-HIV-1 activity (in words)” value in the data set on HIV-1LAI was “did not show any anti-HIV-1 activity”. The EC90 with HIV-1LAI (setting [19]) was > 100 µM.

With `CCC(CC)O[C@@H]1C=C(C(=O)O)C[C@H](N)[C@H]1NC(C)=O` [oseltamivir carboxylate, (3R,4R,5S)-4-(acetylamino)-5-amino-3-(pentan-3-yloxy)cyclohex-1-ene-1-carboxylic acid, reference compound], the CC50 in “in vitro [15]” was > 10 µg/mL. In addition, a half-maximal effect in data set [14] (Influenza A virus, H5N1, MDCK) (EC50) was put at 0.061 µg/mL.

Regarding `NC(=O)c1ncn([C@@H]2O[C@H](CO)[C@@H](O)[C@H]2O)n1` [ribavirin, 1-β-D-ribofuranosyl-1H-1,2,4-triazole-3-carboxamide, reference compound], the EC50 in the data set with B/Florida/4/2006 (Influenza B virus, MDCK) worked out at 3.9 µg/mL (≈ 16 µM); in data set [6] (Influenza A virus, H3N2, MDCK), 2.9 µg/mL (≈ 11.9 µM); in data set [8] (Influenza A virus, H5N1, MDCK), 9.4 µg/mL (≈ 38.5 µM); in [11] (Human respirovirus 3, MA104), 14 µg/mL (≈ 57.3 µM); in data set [13] (Influenza A virus, H1N1, MDCK), 4.2 µg/mL (≈ 17.2 µM); in [14] (Influenza A virus, H5N1, MDCK), 5.4 µg/mL. Moreover, the CC50 is > 100 µg/mL in the data set “in vitro [15]” and 190 µg/mL (≈ 778 µM) in “in vitro [16]”.

Turning to “[1,4-Bis(4-hydroxyphenyl)butane-1,4-dione – 1,4-bis(4-methoxyphenyl)butane-1,4-dione (7) – (2S,2′S)-2,2′-{[(tricyclo[3.3.1.1^3,7]dec-1-ylamino)methanediyl] bis(pteroylimino)}dipentanedioic acid (0.2:1:1)]×3 H2O×0.4 acetone [Compound 9]”, in the data set on HIV-1LAI (DMSO stock after first FRC), the “antiretroviral activity after first FRC (in words)” value was “seriously affected”. The “antiretroviral activity after second FRC (in words)” value in the data set on HIV-1LAI (DMSO stock after second FRC) was “completely lost”. Further, the “anti-HIV-1 activity (in words)” value with HIV-1LAI is listed as “effective inhibitor”. Moreover, the EC90 was 57.7 µM in the data set on HIV-1LAI (experiment 1, DMSO stock after first FRC); > 100 µM with HIV-1LAI (setting [22]); 34.2 µM in the data set on HIV-1LAI (setting [19]); 34.8 µM in the data set on HIV-1LAI (setting [21]). Further, the half-maximal effective concentration (EC50) in the data set with HIV-1LAI (experiment 1, DMSO stock after first freezing-(re-thawing) cycle (FRC)) is 32.7 µM; in the data set with HIV-1LAI (setting [22]) it was > 100 µM; in the data set with HIV-1LAI (setting [20]), 3.5 µM; in the data set with HIV-1LAI (setting [21]), 10.8 µM.

Values taken from PMC7734623 (Antiviral chemistry & chemotherapy, 2012).
